This is an account of results in patent publication US7326422B2, “Dissolvable oxides for biological applications” (DelSiTech Oy, priority 1996, dated 2008).

Each structure is given as a SMILES string. Counter-ions that a name gives are not always drawn.

Data set [1] is described as follows: In vitro dissolution test, USP XXII dissolution apparatus II (paddle method), SBF pH 7.4 with 0.5% sodium dodecyl sulphate, 37° C. The format is physicochemical. As to conditions: for Dissolution of toremifene citrate: b: silica xerogel with PEG 4,600; for Release of toremifene citrate: SLOPE: silica xerogel; for release of toremifene citrate: linear, zero-order. How it is done:
Simulated body fluid (SBF, pH 7.4) containing 0.5% […] sodium dodecyl sulphate was used as dissolution medium. SBF was prepared by dissolving reagent grade NaCl (136.8 mM), NaHCO3 (4.2 mM), KCl (3.0 mM), K2HPO4×3H2O (1.0 mM), MgCl2×6H2O (1.5 mM), CaCl2×2H2O […] and Na2SO4 (0.5 mM) in distilled water. They were buffered at pH 7.4 with tris-(hydroxymethyl)aminomethane (50 mM) and hydrochloric acid.
The volume of dissolution medium was 250 ml. Agitation intensity was 50 rpm and temperature was 37° C. […]

The nature of data set [2]: Dissolution of spray dried or crushed gel particles in 250 ml SBF, USP XXII dissolution apparatus II (paddle method). The format is physicochemical. To be noted: for toremifene citrate released: after 30 hours; for slope (%/h^1/2): microspheres with 11 w-% toremifene citrate. How it is done:
The solution for spray drying purpose was prepared with a mole ratio of TEOS:H2O:HCl=1.0:14.2:0.003. […] Before spray drying the pH of the sol was adjusted to pH 2.1 with hydrochloric acid. Silica sol was spray dried immediately or after 65 hours aging at room temperature. The spray drying conditions were as described in Example 6. […] About 42 mg of gel particles were placed in 250 ml of simulated body fluid (SBF) at 37° C. and pH 7.4.

The conditions of data set [3]: during the first day; crushed silica xerogel particles of 500-700 μm; cited from earlier work.

With `CN(C)CCOc1ccc(/C(=C(/CCCl)c2ccccc2)c2ccccc2)cc1` [toremifene citrate], in data set [1] (silica xerogel monolith with PEG 4,600), the “release faster from 28 days aged silica xerogels than from unaged” value is “about 30%”. Besides, the “Dissolution of toremifene citrate: b” value is given as “b = 0.46%/mg %/mg implant/h^1/2” in data set [1] (aging 0 days, dried at 11.4 RH-%); “b = 0.53 %/mg implant/h^1/2” in data set [1] (aging 0 days, dried at 48.4 RH-%); “b = 0.46 %/mg implant/h^1/2” in data set [1] (aging 0 days, dried at 74.7 RH-%); “b = 0.59 %/mg implant/h^1/2” in data set [1] (aging 7 days, dried at 11.4 RH-%); “b = 0.52 %/mg implant/h^1/2” in data set [1] (aging 7 days, dried at 48.4 RH-%); “b = 0.06%/mg %/mg implant/h” in data set [1] (aging 7 days, dried at 74.7 RH-%). For the same molecule, the “Dissolution of toremifene citrate: b” value is given as “b = 0.67 %/mg implant/h^1/2” in data set [1] (aging 28 days, dried at 11.4 RH-%) and “b = 0.74 %/mg implant/h^1/2” in data set [1] (aging 28 days, dried at 48.4 RH-%). Also, the “Release of toremifene citrate: SLOPE” value is recorded as 0.094%/ %/mg × h in data set [1] (H2O/TEOS = 6:1, PEG 4600); 0.922%/mg %/mg IMPLANT × h^1/2 in data set [1] (H2O/TEOS = 6:1, PEG 10000); 0.657%/mg %/mg IMPLANT × h^1/2 in data set [1] (H2O/TEOS = 6:1, without PEG); 0.052 %/mg IMPLANT × h in data set [1] (H2O/TEOS = 14:1, PEG 4600); 0.061 %/mg IMPLANT × h in data set [1] (H2O/TEOS = 14:1, PEG 10000); 0.085 %/mg IMPLANT × h in data set [1] (H2O/TEOS = 14:1, without PEG). The “release rate (linear)” value was determined as 0.1 %/mg implant/h in data set [1] (silica xerogels containing PEG 10 000); 0.13 %/mg implant/h in data set [1] (silica xerogels containing PEG 4600); 0.16 %/mg implant/h in data set [1] (silica-xerogels without polyethylene glycol); 0.68 w-% per hour in data set [1] (spray dried particles (60-200 μm) containing 10.2 w-% toremifene citrate, two months from preparation). In addition, the “release of toremifene citrate” value is 0.05 %/mg implant/h in data set [1] (sintered silica gel (120° C.) containing 11.5 wt-% drug) and 0.11 %/mg implant/h in data set [1] (sintered silica gel (120° C.) containing 34.4 wt-% drug). The toremifene citrate released was 80 w-% in data set [2] (microspheres (<50 μm) spray dried at pH 3.8, square root of time kinetics); 63.1 w-% in data set [2] (microspheres from sol aged 65 hours, pH 2); 75.2 w-% in data set [2] (microspheres from unaged sol, pH 2). For the same molecule, the “dissolution rate (square root of time kinetics)” value in data set [2] (crushed silica xerogel granules about 4-50 μm, PEG 4.600) was 8.1 %/h^1/2. Moreover, the results for the “cum released toremifene (%) after 30 h” value in data set [2] (microspheres aged for 0 h (pH 2)) and in data set [2] (microspheres aged for 65 h (pH 2)) were 75.2% and 63.1%, respectively. In addition, the figures for the “slope (%/h^1/2)” value in data set [2] (aged for 0 h (pH 2)) and in data set [2] (aged for 65 h (pH 2)) were 12.2 %/h^1/2 and 9.79 %/h^1/2, respectively. In addition, the “release slower from aged than from unaged microspheres” value in data set [2] (sol aged 65 h vs 0 h, pH 2) was “about 20%”.
`CN[C@H](CC(C)C)C(=O)N[C@H]1C(=O)N[C@@H](CC(N)=O)C(=O)N[C@H]2C(=O)N[C@H]3C(=O)N[C@H](C(=O)N[C@H](C(=O)O)c4cc(O)cc(O)c4-c4cc3ccc4O)[C@H](O)c3ccc(c(Cl)c3)Oc3cc2cc(c3O[C@@H]2O[C@H](CO)[C@@H](O)[C@H](O)[C@H]2O[C@H]2C[C@](C)(N)[C@H](O)[C@H](C)O2)Oc2ccc(cc2Cl)[C@H]1O` [vancomycin]: the incorporated vancomycin released result in data set [3] is recorded as “about 90%”.
